Results as given in patent publication US8779092B2, “Metastasis-specific peptides and their diagnostic and therapeutic applications” (Universita Degli Studi di Torino, priority 2006, dated 2014).

Tested on: primary cells of hepatic metastasis
Test: Binding experiments on primary cells
Parameters: species or system human
Conditions: for binding of phage clone to primary hepatic metastasis cells, summary over samples: all tested patient samples; for binding of phage clone to primary hepatic metastasis cells: compared to normal liver of the same patient
Procedure: Samples were processed immediately after surgical removal, in order to disaggregate the tissues and extract single cells on which to perform the experiments. All the manipulations were performed under laminar flux in sterility. Samples were chopped with a scalpel in a small volume of PBS. The suspension, collected in PBS, was centrifuged for 3 minutes at 100 rpm at room temperature and the pellet was resuspended in 5 ml of collagenase (0.25% weight/volume in DMEM). The digestion of the tissue fragments was done incubating this suspension for 2 hours at 37° C. while shaking. The sample was again centrifuged, to eliminate all the particulate under the cell size (lipid aggregates, cell portions) or also smaller cells, of hematopoietic origin. Pellet was washed twice in PBS. Cells were filtered on filters with a diameter of 45 μm, counted in Burker chamber and resuspended at a concentration of 10^6/ml in DMEM/FCS/HEPES.
These assays were performed with an Input of 10^9 TU of each clone, on cells from the hepatic metastasis cell line (target) and on cells from normal liver (negative control). The Output of these experiments was normalized on binding to an insertless phage, fd-tet, giving a measure of the unspecific interaction due to the phage itself. The binding increase was evaluated as ratio between normalized Output of the target and normalized Output of the negative control. All the experiments were repeated at least 3 times, when possible for material availability.
To evaluate if the selected inserts were specific for ubiquitous surface determinants in human hepatic metastases, the 7 selected clones were tested on primary cells of hepatic metastasis, comparing to normal liver of the same patients. For these binding assays, samples from 9 patients were used (20, 21, 22, 25, 26, 27, 28, 31, 32), with the same conditions described for the cell lines.
In the first experiments, due to the low cell numbers, related to the set up phase of the purification procedure, the binding of only some clones was evaluated. In general, 3 assays have been performed for each sample. […] It is interesting to note that, in the experiments on fresh cells, binding increases are much higher than in those performed with the cultured cell lines.

| Substance | binding of phage clone to primary hepatic metastasis cells, summary over samples | binding of phage clone to primary hepatic metastasis cells (patient P#27) | binding of phage clone to primary hepatic metastasis cells (patient P#28) |
| --- | --- | --- | --- |
| ARPGLRS (listed as Homo sapiens) [SEQ ID NO. 1] | worked on all the samples |  |  |
| GIYRLRS ((6)..(6) May be fused with GST; listed as Homo sapiens) [SEQ ID NO. 6] | worked on all the samples |  |  |
| GVYSLRS (listed as Homo sapiens) [SEQ ID NO. 7] | worked on all the samples |  |  |
| LRPGLRS (listed as Homo sapiens) [SEQ ID NO. 3] | worked on all the samples |  |  |
| MRYALRS (listed as Homo sapiens) [SEQ ID NO. 2] |  | negative | negative |
